Patent publication US20180344646A1, “AMORPHOUS DISPERSION GRANULES AND ORAL DOSAGE FORMS” (PATHEON DEVELOPMENT SERVICES INC., priority 2015, published 2018)

Assay: In vitro non-sink dissolution, gastric-to-intestinal media transfer test
Assay type: physicochemical
Design: AUC free: concentration or dose not given beside the values; AUC total: unit not given here
Conditions: for AUC free: free drug; for AUC total: non-sink
[1] = Table 5 (nifedipine), Fasted Simulated Gastric (0.1 N HCl)
[2] = Table 5 (nifedipine), Fasted Simulated Intestinal (FaSSIF, pH 6.8)

## COc1ccc2c(c1)c(CC(=O)O)c(C)n2C(=O)c1ccc(Cl)cc1 [indomethacin crystalline API, indomethacin]
Table 2, Fasted Simulated Gastric (0.1 N HCl)
  AUC free: 0.0
Table 2, Fasted Simulated Gastric (0.1 N HCl), 2 mg indomethacin per mL
  AUC total: 1020.4
Table 2, Fasted Simulated Intestinal (FaSSIF, H 6.8)
  AUC free: 63324.8
Table 2, Fasted Simulated Intestinal (FaSSIF, H 6.8), 1 mg indomethacin per mL
  AUC total: 81054.9
[1]
  AUC free: 68.9
  AUC total: 483.4
[2]
  AUC free: 1349.5
  AUC total: 2810.0
